Experimental data reported in US20110110920A1, “METHOD OF TREATING PERIPHERAL ARTERIAL DISEASE” (priority 2008, published 2011).

Tests used:
VEGF mRNA = VEGF mRNA expression in HCMVE cells, real-time PCR; assay type: cell-based, human; conditions: VEGF 10 ng/ml, 24 h
Excerpt: Data from one experiment performed in triplicate are shown in FIG. 11 as mean±SD. *p<0.01 compared to control (C) cells in normoxia. ^#p<0.01 compared to control (C) cells in hypoxia.

[1] = tested on: Human Lung Microvascular Endothelial Cells (HLME); assay: Survival of serum-deprived HLME cells; assay type: cell-based; conditions: serum-deprivation
[2] = tested on: Human coronary artery endothelial (HCAE) cells; assay: Transmembrane migration of endothelial cells toward VEGF (FluoroBlok inserts); assay type: cell-based; conditions: hypoxic, VEGF 10 ng/ml as chemoattractant, 22 h
Experimental: Transmembrane cell migration assays were performed using BD FluoroBlok inserts (BD Bioscience, Bedford, Mass.) as described by the vendor. […] (V) or medium alone (C) was added to the lower chamber of the insert plate as a chemoattractant. Endothelial migration was performed in normoxic or 1% hypoxic conditions. After a 22-hour incubation, cells were labeled post-migration with Calcein AM and measured by detecting the fluorescence of the cells that migrated to the underside of the insert membrane.

eNOS [3] = assay: VEGF-induced activation of eNOS in HCAE cells, western blot; assay type: cell-based, human; conditions: normoxic HCAE cells, VEGF 50 ng/ml, 1 minute
Excerpt: The membrane was re-probed with anti-GAPDH (glyceraldehyde-3-phosphate dehydrogenase) antibody to show equal protein loading.

[4] = tested on: Human coronary artery endothelial (HCAE) cells; assay: Endothelial cell invasion through Matrigel toward VEGF; assay type: cell-based; conditions: normoxic or hypoxic, VEGF 10 ng/ml, no TP508
Experimental: Endothelial cell invasion assays were performed using BD BioCoat™ Angiogenesis System (BD Bioscience, Bedford, Mass.) which utilizes FluoroBlok inserts coated with BD Matrigel Matrix (BD Bioscience, Bedford, Mass.). […] Endothelial cell invasion was performed in normoxic or hypoxic (1% O2) conditions. After 22 hours of incubation, cells were labeled post-invasion with Calcein AM and measured by detecting the fluorescence of the cells that migrated to the underside of insert membrane.

arginase 1 = assay: Arginase 1 expression in HCAE cells with or without TNFα, western blot; assay type: cell-based, human; conditions: TNFα treatment
Experimental: (§1) Human coronary artery endothelial cells (HCAE cells, Lonza, Walkersville, Md.) were cultured in 5% CO2 at 37° C. in endothelial cell growth medium (EGM) supplemented with 2% fetal bovine serum and Single Quot supplements (Clonetics, San Diego, Calif.; containing epidermal growth factor, hydrocortisone, vascular endothelial growth factor, fibroblast growth factor, insulin growth factor, ascorbic acid, heparin, gentamycin, and amphotericin B). Cells were used between passages 4 and 6 for these studies. HCAE cells were plated at a density of 50,000 cells per well in 12-well plates and were grown for 3 days to reach confluency. […] Cells were then incubated in normoxic or 1% hypoxic conditions for the indicated times.
(§2) The cell lysates were subjected to SDS-PAGE in a 10% polyacrylamide gel and transferred to a nitrocellulose membrane (0.2-μm, Invitrogen). After blocking with 5% milk, the membrane was incubated overnight at 4° C. with primary antibodies against phospho-eNOS (Ser 1177) and eNOS (Cell Signaling Technology, Beverly, Mass.), human type-1 arginase (clone 9C5) (Cell Sciences, Canton, Mass.), or GAPDH (Santa Cruz Biotechnology, Santa Cruz, Calif.). HRP-conjugated anti-mouse or anti-rabbit antibodies (Cell Signaling Technology) were used as secondary antibodies (HRP, horseradish peroxidase). […]

eNOS [5] = assay: eNOS expression and S1177 phosphorylation in HCAE cells, western blot; assay type: cell-based, human; conditions: 24 h
Experimental: as §1, §2

eNOS mRNA = eNOS mRNA in HCAE cells, RT-PCR and SYBR Green real-time PCR; assay type: cell-based, human
Experimental: Human coronary artery endothelial cells (HCAE cells, Lonza, Walkersville, Md.) were cultured in 5% CO2 at 37° C. in endothelial cell growth medium (EGM) supplemented with 2% fetal bovine serum and Single Quot supplements (Clonetics, San Diego, Calif.; containing epidermal growth factor, hydrocortisone, vascular endothelial growth factor, fibroblast growth factor, insulin growth factor, ascorbic acid, heparin, gentamycin, and amphotericin B). Cells were used between passages 4 and 6 for these studies. HCAE cells were plated at a density of 50,000 cells per well in 12-well plates and were grown for 3 days to reach confluency. […] Cells were then incubated in normoxic or 1% hypoxic conditions for the indicated times. […] For RNA extraction, HCAE cells were cultured in 6-well plates.
Total RNA was isolated using an Ambion isolation kit as described by the manufacturer.
RT-PCR for eNOS was performed by Ready-to-Go RT-PCR Beads (Amersham Biosciences) using a two-step protocol. […]
Samples were coded to provide blinded analysis. […] Quantitative PCR amplifications were done using 2 μl of cDNA in a total volume of 25 μl using SYBR green probes in the SYBR Green PCR Master Mix (ABI). […] The reverse-transcribed cDNA sample cycle threshold values were determined from triplicate samples and normalized to the 18S “housekeeping” gene.

Substance | VEGF mRNA in hypoxic cells (VEGF mRNA; hypoxic) | decrease of VEGF mRNA expression compared to control cells (VEGF mRNA; normoxic) [fold] | cell survival, agent alone [1] | migration of control endothelial cells relative to media control cells [2] [%] | phosphorylation of eNOS on serine 1177, maximum (eNOS [3]) [fold] | invasion of control endothelial cells through Matrigel toward human VEGF [4] | expression of arginase 1 (ARG1) relative to control cultures (arginase 1) | reduction of eNOS expression relative to normoxic controls (eNOS [5]) [%] | eNOS mRNA expression (RT-PCR) (eNOS mRNA; 6 h stimulation, 25 or 30 cycles, relative to controls) | decrease of eNOS mRNA level (eNOS mRNA; 24 h, real-time PCR) [%]
VEGF | no effect, or decreased | 2 | increased survival at lower levels | ~150 | 2 | not stimulated | – | – | – | –
TNFα | – | – | – | – | – | – | significant increase | 45 | drastically decreased | ~80
